Results from the NIST ThermoML archive (doi:10.1016/j.jct.2016.01.019).
“And” between values parts separate entries of the source, which are not always exact repeats. Equal entries are not always repeated.

Settings: Liquid; for mass density: 94.64 kPa, Vibrating tube method; for vapor or sublimation pressure: Ebulliometric method (Recirculating still)

CC(O)CO (stereo not given) [1,2-propanediol]
Settings	mass density [kg/m3]	vapor or sublimation pressure
293.15 K	1036.25	–
298.15 K	1032.61	–
303.15 K	1028.93	–
308.15 K	1025.19	–
313.15 K	1021.42	–
318.15 K	1017.65	–
389.39 K	–	6.67 kPa
396.95 K	–	10 kPa
402.95 K	–	13.33 kPa
408.6 K	–	16.61 kPa
412.95 K	–	19.96 kPa
413.23 K	–	19.99 kPa
417.15 K	–	23.34 kPa
421.2 K	–	26.62 kPa
421.21 K	–	26.66 kPa
424.5 K	–	30 kPa
427.16 K	–	33.33 kPa
427.23 K	–	33.57 kPa
429.55 K	–	36.61 kPa
432.05 K	–	40.01 kPa and 39.99 kPa
433.7 K	–	43.33 kPa
436.07 K	–	46.66 kPa
437.77 K	–	50 kPa
439.74 K	–	53.25 kPa
441.27 K	–	56.74 kPa
443.15 K	–	59.99 kPa

OCCCO [propan-1,3-diol]
Settings	mass density [kg/m3]	vapor or sublimation pressure
293.15 K	1052.75	–
298.15 K	1049.67	–
303.15 K	1046.55	–
308.15 K	1043.45	–
313.15 K	1040.32	–
318.15 K	1037.18	–
414.2 K	–	6.65 kPa and 6.67 kPa
420.8 K	–	9.93 kPa
427.55 K	–	13.33 kPa
427.6 K	–	13.47 kPa
433.9 K	–	16.75 kPa
438.05 K	–	19.99 kPa
441.95 K	–	23.46 kPa
445.3 K	–	26.66 kPa
448.65 K	–	30.22 kPa
451.65 K	–	33.22 kPa
453.15 K	–	33.33 kPa
454.65 K	–	36.69 kPa
457.45 K	–	39.99 kPa
457.49 K	–	40.04 kPa
459.85 K	–	43.37 kPa
461.95 K	–	46.67 kPa and 46.66 kPa
463.95 K	–	49.97 kPa
465.45 K	–	53.24 kPa
